Data set [1] can be described thus: Activation of PKC assessed as [gamma32P] incorporation at 2 mM after 15 mins by scintillation counting in presence of TPA.
Data set [2] deals with Mus musculus. Put plainly: Toxicity in sc dosed mouse assessed as foot-pad swelling over 5 hrs relative to control. In kind it is organism-based. The conditions noted are these: in vivo.
A short description of data set [3]: Activation of PKC assessed as [gamma32P] incorporation at greater than 0.5 mM after 15 mins by scintillation counting in presence of Ca2+.
Data set [4] is described as follows: Activation of PKC assessed as [gamma32P] incorporation after 15 mins by scintillation counting in presence of TPA.

Calls of active or inactive are those of the source. The calls are words filed in the database; no cut-off is given here.

Turning to `CC/C=C\C/C=C\CC[C@@H](O)CNC(=O)CCC[N+](C)(C)C.[I-]` [COMPLANINE], the Activity in data set [1] was 10.9 pmol/min; in data set [2], “Toxic”.

Turning to `CC(C)CCCCC(O)CNC(=O)CCC[N+](C)(C)C.[I-]` (stereo not drawn) [NEOCOMPLANINE A], in data set [3], the outcome was Active. The Activity entry in data set [4] is “Dose-dependent effect”; in data set [2], “Toxic”.

With `CCCCCCCC(O)CNC(=O)CCC[N+](C)(C)C.[I-]` (stereo not drawn) [NEOCOMPLANINE B], the result in data set [3] was Active. For the same molecule, the values for the Activity entry in data set [4] and in data set [2] were “Dose-dependent effect” and “Toxic”, respectively.

Values taken from ChEMBL document CHEMBL1154845, “Neocomplanines A and B, a complanine family isolated from the marine fireworm” (J Nat Prod, 2010).
